16 compounds from patent US10947389B2, “Composition, film, near infrared cut filter, laminate, pattern forming method, solid image pickup element, image display device, infrared sensor, and color filter” (FUJIFILM Corporation, priority 2016, dated 2021) can be followed below.

A short description of data set [1]: Evaluation of absorption maximum and absorbance ratio (500 nm/λmax) in solution. It is filed as physicochemical. Conditions: for Absorbance Ratio (500 nm/λmax) / Absorption Maximum (nm): solvent chloroform; for λmax (nm) of Second Near Infrared Absorbing Compound: as listed in Table 58. From the text: In this specification, “having an absorption maximum in a wavelength range of 650 to 1000 nm” denotes having a maximum absorbance in a wavelength range of 650 to 1000 nm in an absorption spectrum of the near infrared absorbing compound in a solution. Examples of a measurement solvent used for the measurement of the absorption spectra of the near infrared absorbing compound in the solution include chloroform, methanol, dimethyl sulfoxide, ethyl acetate, and tetrahydrofuran. In the case of a compound which is soluble in chloroform, chloroform is used as the measurement solvent. In the case of a compound which is not soluble in chloroform, methanol is used. In addition, In the case of a compound which is not soluble in chloroform and methanol, dimethyl sulfoxide is used.
Each of the compounds was dissolved in a measurement solvent shown in the following tables (concentration: 2.5×10^−6 mol/L) to measure an absorption spectrum (optical path length: 10 mm).
In addition, an absorbance ratio (500 nm/λmax) as a value obtained by dividing an absorbance at a wavelength of 500 nm by an absorbance at an absorption maximum was evaluated based on the following criteria.
A: the absorbance ratio (500 nm/λmax) was 0.04 or lower
B: the absorbance ratio (500 nm/λmax) was higher 0.04 and 0.08 or lower
C: the absorbance ratio (500 nm/λmax) was higher than 0.08

Data set [2] is described as follows: Evaluation of solubility in water at 23° C. Conditions: stirred for 1 hour. It is filed as physicochemical. As for the experimental part:
Each of the compounds was added to water at 23° C. under the atmospheric pressure, the components were stirred for 1 hour, and the solubility of the compound in water was obtained. The solubility of the compound was evaluated based on the following criteria.
A: the solubility in water at 23° C. was 0.1 mass % or lower
B: the solubility in water at 23° C. was higher than 0.1 mass % and 1 mass % or lower
C: the solubility in water at 23° C. was higher than 1 mass %

As for `Cc1ccc2oc(C(C#N)=c3c4c(-c5ccc(OCC(CCCCCCCC(C)C)CCCCCC(C)C)cc5)n(B(c5ccccc5C)c5ccccc5C)c(=C(C#N)c5nc6cc(C)ccc6o5)c4c(-c4ccc(OCC(CCCCCCCC(C)C)CCCCCC(C)C)cc4)n3B(c3ccccc3C)c3ccccc3C)nc2c1` (stereo not drawn) [II-201], in data set [1], the “Absorbance Ratio (500 nm/λmax)” value is on record as “A (the absorbance ratio (500 nm/λmax) was 0.04 or lower)” and the “Absorption Maximum (nm)” value is given as 737 nm. In addition, in data set [2], the Solubility entry was “A (the solubility in water at 23 °C was 0.1 mass % or lower)”.

`Cc1ccc2oc(/C(C#N)=c3/c4c(-c5ccc(OCC(CCC(C)CC(C)(C)C)C(C)CC(C)(C)C)cc5)n(B(c5ccccc5C)c5ccccc5C)/c(=C(/C#N)c5nc6cc(C)ccc6o5)c4c(-c4ccc(OCC(CCC(C)CC(C)(C)C)C(C)CC(C)(C)C)cc4)n3B(c3ccccc3C)c3ccccc3C)nc2c1` (stereo not drawn) [II-202]: in data set [1], the “Absorbance Ratio (500 nm/λmax)” value is given as “A (the absorbance ratio (500 nm/λmax) was 0.04 or lower)” and the “Absorption Maximum (nm)” value is 737 nm. In addition, the Solubility result in data set [2] is “A (the solubility in water at 23 °C was 0.1 mass % or lower)”.

Consider `Cc1ccc2c(c1)OB(n1c(-c3cccc(OCC(CCC(C)CC(C)(C)C)C(C)CC(C)(C)C)c3)c3/c(=C(\C#N)c4nc5cc(C)ccc5o4)n(B4Oc5ccc(C)cc5O4)c(-c4cccc(OCC(CCC(C)CC(C)(C)C)C(C)CC(C)(C)C)c4)c3/c1=C(\C#N)c1nc3cc(C)ccc3o1)O2` (stereo not drawn) [II-269], for which, in data set [1], the “λmax (nm) of Second Near Infrared Absorbing Compound” value (“λmax (nm)” below) came to 685 nm, the “Absorbance Ratio (500 nm/λmax)” value is given as “A (the absorbance ratio (500 nm/λmax) was 0.04 or lower)” and the “Absorption Maximum (nm)” value was determined as 685 nm. In addition, in data set [2], the Solubility result is “A (the solubility in water at 23 °C was 0.1 mass % or lower)”.

For `Cc1ccc2oc(C(C#N)=c3c4c(-c5cccc(OCC(CCCCCCCC(C)C)CCCCCC(C)C)c5)n(B5Oc6cc7ccccc7cc6O5)c(=C(C#N)c5nc6cc(C)ccc6o5)c4c(-c4cccc(OCC(CCCCCCCC(C)C)CCCCCC(C)C)c4)n3B3Oc4cc5ccccc5cc4O3)nc2c1` (stereo not drawn) [II-274], in data set [1], the “λmax (nm)” value was 685 nm, the “Absorbance Ratio (500 nm/λmax)” value is listed as “A (the absorbance ratio (500 nm/λmax) was 0.04 or lower)” and the “Absorption Maximum (nm)” value was 685 nm. Also, the Solubility result in data set [2] was “A (the solubility in water at 23 °C was 0.1 mass % or lower)”.

Consider `Cc1ccc2oc(/C(C#N)=c3/c4c(-c5cccc(OCC(CCC(C)CC(C)(C)C)C(C)CC(C)(C)C)c5)n(B5Oc6cc7ccccc7cc6O5)/c(=C(/C#N)c5nc6cc(C)ccc6o5)c4c(-c4cccc(OCC(CCC(C)CC(C)(C)C)C(C)CC(C)(C)C)c4)n3B3Oc4cc5ccccc5cc4O3)nc2c1` (stereo not drawn) [II-275], for which, in data set [1], the “λmax (nm)” value is on record as 685 nm, the “Absorbance Ratio (500 nm/λmax)” value is on record as “A (the absorbance ratio (500 nm/λmax) was 0.04 or lower)” and the “Absorption Maximum (nm)” value turned out to be 685 nm. The Solubility entry in data set [2] was “A (the solubility in water at 23 °C was 0.1 mass % or lower)”.

Consider `CC(C)CCCCCCCC(CCCCCC(C)C)COc1ccc(-c2c3c(=C(C#N)c4nc5cc(Cl)ccc5o4)n(B(c4ccccc4)c4ccccc4)c(-c4ccc(OCC(CCCCCCCC(C)C)CCCCCC(C)C)cc4)c3c(=C(C#N)c3nc4cc(Cl)ccc4o3)n2B(c2ccccc2)c2ccccc2)cc1` (stereo not drawn) [II-325], for which, in data set [1], the “Absorbance Ratio (500 nm/λmax)” value is recorded as “A (the absorbance ratio (500 nm/λmax) was 0.04 or lower)” and the “Absorption Maximum (nm)” value was determined as 738 nm. The Solubility result in data set [2] is “A (the solubility in water at 23 °C was 0.1 mass % or lower)”.

Regarding `CC(CCC(COc1cccc(-c2c3/c(=C(\C#N)c4nc5cc(Cl)ccc5o4)n(B4Oc5ccccc5O4)c(-c4cccc(OCC(CCC(C)CC(C)(C)C)C(C)CC(C)(C)C)c4)c3/c(=C(\C#N)c3nc4cc(Cl)ccc4o3)n2B2Oc3ccccc3O2)c1)C(C)CC(C)(C)C)CC(C)(C)C` (stereo not drawn) [II-408], in data set [1], the “λmax (nm)” value was 680 nm, the “Absorbance Ratio (500 nm/λmax)” value is recorded as “A (the absorbance ratio (500 nm/λmax) was 0.04 or lower)” and the “Absorption Maximum (nm)” value worked out at 680 nm. Further, in data set [2], the Solubility entry is “A (the solubility in water at 23 °C was 0.1 mass % or lower)”.

On to `CC(C)CCCCCCCC(CCCCCC(C)C)COc1ccc(-c2c3c(=C(C#N)c4nc5ccccc5s4)n(B(c4ccccc4)c4ccccc4)c(-c4ccc(OCC(CCCCCCCC(C)C)CCCCCC(C)C)cc4)c3c(=C(C#N)c3nc4ccccc4s3)n2B(c2ccccc2)c2ccccc2)cc1` (stereo not drawn) [II-507], for which, in data set [1], the “Absorbance Ratio (500 nm/λmax)” value is recorded as “A (the absorbance ratio (500 nm/λmax) was 0.04 or lower)” and the “Absorption Maximum (nm)” value stood at 780 nm. The Solubility entry in data set [2] is “A (the solubility in water at 23 °C was 0.1 mass % or lower)”.

As for `CC(CCC(COc1ccc(-c2c3c(=C(C#N)c4nc5ccccc5s4)n(B(c4ccccc4)c4ccccc4)c(-c4ccc(OCC(CCC(C)CC(C)(C)C)C(C)CC(C)(C)C)cc4)c3c(=C(C#N)c3nc4ccccc4s3)n2B(c2ccccc2)c2ccccc2)cc1)C(C)CC(C)(C)C)CC(C)(C)C` (stereo not drawn) [II-508], in data set [1], the “Absorbance Ratio (500 nm/λmax)” value is “A (the absorbance ratio (500 nm/λmax) was 0.04 or lower)” and the “Absorption Maximum (nm)” value is 780 nm. In addition, the Solubility result in data set [2] is “A (the solubility in water at 23 °C was 0.1 mass % or lower)”.

For the compound `N#CC(c1nc2ccccc2s1)=c1c2c(-c3ccc(O)cc3)n(B(c3ccccc3)c3ccccc3)c(=C(C#N)c3nc4ccccc4s3)c2c(-c2ccc(O)cc2)n1B(c1ccccc1)c1ccccc1` [II-524], in data set [1], the “Absorbance Ratio (500 nm/λmax)” value is “A (the absorbance ratio (500 nm/λmax) was 0.04 or lower)” and the “Absorption Maximum (nm)” value is 779 nm. Besides, the Solubility result in data set [2] is “A (the solubility in water at 23 °C was 0.1 mass % or lower)”.

In the case of `CC(C)CCCCCCCC(CCCCCC(C)C)COc1cccc(-c2c3c(=C(C#N)c4nc5ccccc5s4)n(B(c4ccccc4)c4ccccc4)c(-c4cccc(OCC(CCCCCCCC(C)C)CCCCCC(C)C)c4)c3c(=C(C#N)c3nc4ccccc4s3)n2B(c2ccccc2)c2ccccc2)c1` (stereo not drawn) [II-525], in data set [1], the “Absorbance Ratio (500 nm/λmax)” value is given as “A (the absorbance ratio (500 nm/λmax) was 0.04 or lower)” and the “Absorption Maximum (nm)” value is 783 nm. For the same compound, the Solubility result in data set [2] is “A (the solubility in water at 23 °C was 0.1 mass % or lower)”.

For the compound `Cc1ccccc1B(c1ccccc1C)n1c(-c2ccc(OCC(CCCCCCCC(C)C)CCCCCC(C)C)cc2)c2c(=C(C#N)c3nc4ccccc4s3)n(B(c3ccccc3C)c3ccccc3C)c(-c3ccc(OCC(CCCCCCCC(C)C)CCCCCC(C)C)cc3)c2c1=C(C#N)c1nc2ccccc2s1` (stereo not drawn) [II-541], in data set [1], the “Absorbance Ratio (500 nm/λmax)” value is “A (the absorbance ratio (500 nm/λmax) was 0.04 or lower)” and the “Absorption Maximum (nm)” value worked out at 772 nm. In data set [2], the Solubility result is “A (the solubility in water at 23 °C was 0.1 mass % or lower)”.

For the compound `CC(C)CCCCCCCC(CCCCCC(C)C)COc1cccc(-c2c3c(=C(C#N)c4nc5ccccc5s4)n(B4Oc5ccccc5O4)c(-c4cccc(OCC(CCCCCCCC(C)C)CCCCCC(C)C)c4)c3c(=C(C#N)c3nc4ccccc4s3)n2B2Oc3ccccc3O2)c1` (stereo not drawn) [II-589], in data set [1], the “λmax (nm)” value is on record as 719 nm, the “Absorbance Ratio (500 nm/λmax)” value was “A (the absorbance ratio (500 nm/λmax) was 0.04 or lower)” and the “Absorption Maximum (nm)” value came out at 719 nm. In addition, the Solubility result in data set [2] is “A (the solubility in water at 23 °C was 0.1 mass % or lower)”.

In the case of `CC(CCC(COc1cccc(-c2c3/c(=C(\C#N)c4nc5ccccc5s4)n(B4Oc5ccccc5O4)c(-c4cccc(OCC(CCC(C)CC(C)(C)C)C(C)CC(C)(C)C)c4)c3/c(=C(\C#N)c3nc4ccccc4s3)n2B2Oc3ccccc3O2)c1)C(C)CC(C)(C)C)CC(C)(C)C` (stereo not drawn) [II-590], in data set [1], the “λmax (nm)” value stood at 719 nm, the “Absorbance Ratio (500 nm/λmax)” value is listed as “A (the absorbance ratio (500 nm/λmax) was 0.04 or lower)” and the “Absorption Maximum (nm)” value was 719 nm. Also, the Solubility entry in data set [2] was “A (the solubility in water at 23 °C was 0.1 mass % or lower)”.

For `COc1ccc2sc(C(C#N)=c3c4c(-c5ccc(OCC(CCCCCCCC(C)C)CCCCCC(C)C)cc5)n(B(c5ccccc5)c5ccccc5)c(=C(C#N)c5nc6cc(OC)ccc6s5)c4c(-c4ccc(OCC(CCCCCCCC(C)C)CCCCCC(C)C)cc4)n3B(c3ccccc3)c3ccccc3)nc2c1` (stereo not drawn) [II-673], in data set [1], the “Absorbance Ratio (500 nm/λmax)” value is “A (the absorbance ratio (500 nm/λmax) was 0.04 or lower)” and the “Absorption Maximum (nm)” value is reported as 794 nm. In data set [2], the Solubility result was “A (the solubility in water at 23 °C was 0.1 mass % or lower)”.

`CC(C)CCCCCCCC(CCCCCC(C)C)COc1ccc(-c2c3c(=C(C#N)c4nc5ccccc5n4C)n(B(c4ccccc4)c4ccccc4)c(-c4ccc(OCC(CCCCCCCC(C)C)CCCCCC(C)C)cc4)c3c(=C(C#N)c3nc4ccccc4n3C)n2B(c2ccccc2)c2ccccc2)cc1` (stereo not drawn) [II-697]: in data set [1], the “Absorbance Ratio (500 nm/λmax)” value is “A (the absorbance ratio (500 nm/λmax) was 0.04 or lower)” and the “Absorption Maximum (nm)” value was determined as 743 nm. Besides, the Solubility entry in data set [2] was “A (the solubility in water at 23 °C was 0.1 mass % or lower)”.
